Experimental findings from US10479784B2, “Substituted pyrazin-2-amines as inhibitors of ATR kinase” (Vertex Pharmaceuticals Incorporated, priority 2008, dated 2019) are described below.

This test has as its target full-length ATR (Homo sapiens (Human), UniProt Q13535). Nature of the test: ATR Inhibition Assay (radioactive-phosphate incorporation). The following applies: read-out: ATR Ki. In kind it is biochemical. In short, it runs like this:
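Full-length human ATR (5 nM) was assayed at 25 °C in 50 mM Tris/HCl pH 7.5, 10 mM MgCl2, 1 mM DTT, with 10 μM [γ-33P]ATP and 800 μM peptide, after 10-min compound preincubation. Reactions were stopped after 24 h, captured on phosphocellulose and counted; Ki(app) came from non-linear regression of initial rates.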

full-length ATR, sequence (Q13535 whole entry): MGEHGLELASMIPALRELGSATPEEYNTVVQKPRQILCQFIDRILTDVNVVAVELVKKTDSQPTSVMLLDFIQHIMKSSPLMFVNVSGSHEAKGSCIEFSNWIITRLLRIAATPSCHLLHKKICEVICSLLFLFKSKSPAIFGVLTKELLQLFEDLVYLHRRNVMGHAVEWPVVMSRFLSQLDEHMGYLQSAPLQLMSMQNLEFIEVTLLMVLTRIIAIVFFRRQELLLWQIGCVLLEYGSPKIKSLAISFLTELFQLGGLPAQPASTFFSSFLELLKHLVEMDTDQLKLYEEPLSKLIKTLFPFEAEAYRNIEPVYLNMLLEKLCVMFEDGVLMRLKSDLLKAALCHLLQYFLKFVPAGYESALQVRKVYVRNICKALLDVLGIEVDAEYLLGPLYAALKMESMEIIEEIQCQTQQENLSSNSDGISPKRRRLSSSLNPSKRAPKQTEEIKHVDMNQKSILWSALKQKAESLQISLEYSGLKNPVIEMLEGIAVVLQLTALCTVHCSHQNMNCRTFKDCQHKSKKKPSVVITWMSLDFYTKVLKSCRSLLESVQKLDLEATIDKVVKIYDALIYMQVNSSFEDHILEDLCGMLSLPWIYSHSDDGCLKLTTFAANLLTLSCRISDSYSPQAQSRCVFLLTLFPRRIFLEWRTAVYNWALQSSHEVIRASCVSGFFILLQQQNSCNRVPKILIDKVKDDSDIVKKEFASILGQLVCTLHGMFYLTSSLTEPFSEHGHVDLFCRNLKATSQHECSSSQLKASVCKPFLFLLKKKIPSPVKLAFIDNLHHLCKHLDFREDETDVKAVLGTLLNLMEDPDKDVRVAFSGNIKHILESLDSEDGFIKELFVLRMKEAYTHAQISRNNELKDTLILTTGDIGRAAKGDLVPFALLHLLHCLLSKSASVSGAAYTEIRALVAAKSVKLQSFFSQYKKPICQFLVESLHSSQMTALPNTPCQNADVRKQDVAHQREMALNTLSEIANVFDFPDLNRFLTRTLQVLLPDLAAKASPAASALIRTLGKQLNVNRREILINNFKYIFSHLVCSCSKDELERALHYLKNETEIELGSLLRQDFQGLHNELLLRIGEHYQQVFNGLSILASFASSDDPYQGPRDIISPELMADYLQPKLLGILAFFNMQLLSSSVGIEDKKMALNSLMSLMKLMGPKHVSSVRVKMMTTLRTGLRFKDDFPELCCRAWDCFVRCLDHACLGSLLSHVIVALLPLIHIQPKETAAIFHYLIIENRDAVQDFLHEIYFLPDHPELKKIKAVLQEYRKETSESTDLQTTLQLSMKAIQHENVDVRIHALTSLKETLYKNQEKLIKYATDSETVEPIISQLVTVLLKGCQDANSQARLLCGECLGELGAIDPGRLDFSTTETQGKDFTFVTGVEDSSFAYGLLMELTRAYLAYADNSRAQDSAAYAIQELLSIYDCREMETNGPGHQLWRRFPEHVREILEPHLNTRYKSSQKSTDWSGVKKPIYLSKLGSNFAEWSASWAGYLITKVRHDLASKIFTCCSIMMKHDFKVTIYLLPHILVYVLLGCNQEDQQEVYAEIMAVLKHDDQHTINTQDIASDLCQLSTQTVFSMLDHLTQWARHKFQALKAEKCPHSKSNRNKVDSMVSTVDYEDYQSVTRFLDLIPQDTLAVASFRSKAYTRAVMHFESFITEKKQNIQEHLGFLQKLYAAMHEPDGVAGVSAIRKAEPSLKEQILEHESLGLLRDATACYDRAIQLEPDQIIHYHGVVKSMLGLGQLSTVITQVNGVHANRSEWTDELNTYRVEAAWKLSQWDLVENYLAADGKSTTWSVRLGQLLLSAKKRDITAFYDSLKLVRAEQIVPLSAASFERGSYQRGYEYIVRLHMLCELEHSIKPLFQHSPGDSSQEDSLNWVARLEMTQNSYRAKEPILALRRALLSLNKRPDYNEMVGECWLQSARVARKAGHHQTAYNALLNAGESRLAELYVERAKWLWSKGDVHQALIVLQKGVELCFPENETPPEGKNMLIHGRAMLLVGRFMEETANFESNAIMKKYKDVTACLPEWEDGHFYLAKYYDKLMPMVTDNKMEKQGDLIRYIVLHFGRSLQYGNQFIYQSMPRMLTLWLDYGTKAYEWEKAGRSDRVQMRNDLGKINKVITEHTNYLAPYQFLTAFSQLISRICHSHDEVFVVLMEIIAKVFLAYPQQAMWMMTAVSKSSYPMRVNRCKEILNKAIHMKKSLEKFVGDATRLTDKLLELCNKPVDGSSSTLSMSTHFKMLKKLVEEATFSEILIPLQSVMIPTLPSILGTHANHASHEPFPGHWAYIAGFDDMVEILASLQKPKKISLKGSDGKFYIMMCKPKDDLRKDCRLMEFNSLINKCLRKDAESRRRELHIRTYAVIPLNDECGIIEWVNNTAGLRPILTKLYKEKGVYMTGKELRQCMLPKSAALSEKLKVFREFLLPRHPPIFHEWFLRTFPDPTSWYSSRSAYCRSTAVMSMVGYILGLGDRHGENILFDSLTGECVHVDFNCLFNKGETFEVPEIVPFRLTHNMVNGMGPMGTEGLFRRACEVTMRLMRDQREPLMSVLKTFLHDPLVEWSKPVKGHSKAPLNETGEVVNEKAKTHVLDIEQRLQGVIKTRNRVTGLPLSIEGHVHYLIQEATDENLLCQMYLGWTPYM

For orientation: Ki means a dissociation constant, usually derived from enzyme kinetics or from competition with a known ligand. Regarding `CN(C)C(=O)c1ccc(-c2cnc(N)c(-c3nnc(-c4ccccc4OCCNC(=O)OC(C)(C)C)o3)n2)cc1` [IA-175, tert-butyl N-[2-[2-[5-[3-amino-6-[4-(dimethylcarbamoyl)phenyl]pyrazin-2-yl]-1,3,4-oxadiazol-2-yl]phenoxy]ethyl]carbamate], the Ki was not above 10 nM.
The result for `CN(C)C(=O)c1ccc(-c2cnc(N)c(-c3nnc(-c4ccc(C(O)CO)cc4)o3)n2)cc1` (stereo not drawn) [IA-106, 4-[5-amino-6-[5-[4-(1,2-dihydroxyethyl)phenyl]-1,3,4-oxadiazol-2-yl]pyrazin-2-yl]-N,N-dimethyl-benzamide] reads 10 to 100 nM; that for `CN(C)C1CCN(C(=O)c2ccc(-c3cnc(N)c(C(=O)Nc4ccccc4)n3)cc2)CC1` [Compound I-80, 3-amino-6-(4-(4-(dimethylamino)piperidine-1-carbonyl)phenyl)-N-phenylpyrazine-2-carboxamide], 10 to 100 nM; that for `CC(C)S(=O)(=O)c1ccc(-c2cnc(N)c(-c3nnc(C4=CCN(C(=O)OC(C)(C)C)CC4)o3)n2)cc1` [IA-95, tert-butyl 4-[5-[3-amino-6-(4-isopropylsulfonylphenyl)pyrazin-2-yl]-1,3,4-oxadiazol-2-yl]-3,6-dihydro-2H-pyridine-1-carboxylate], 100 to 5000 nM.
The result for `CCc1ncccc1NC(=O)c1nc(-c2ccc(S(C)(=O)=O)cc2)cnc1N` [VII-4] reads 10 to 100 nM; that for `Nc1ncc(-c2ccc(C(=O)N3CCC(O)C3)cc2)nc1C(=O)Nc1ccccc1` (stereo not drawn) [Compound I-75, 3-amino-6-(4-(3-hydroxypyrrolidine-1-carbonyl)phenyl)-N-phenylpyrazine-2-carboxamide], 10 to 100 nM; that for `CNCc1ccc(-c2nnc(-c3nc(-c4ccc(S(=O)(=O)N5CCC5)cc4)cnc3N)o2)cc1` [IA-297, 5-[4-(azetidin-1-ylsulfonyl)phenyl]-3-[5-[4-(methylaminomethyl)phenyl]-1,3,4-oxadiazol-2-yl]pyrazin-2-amine], not above 10 nM.
The result for `CC(C)S(=O)(=O)c1ccc(-c2cnc(N)c(-c3nnc(N4CCNCC4)o3)n2)cc1` [IA-239, 5-(4-isopropylsulfonylphenyl)-3-(5-piperazin-1-yl-1,3,4-oxadiazol-2-yl)pyrazin-2-amine] reads 100 to 5000 nM; that for `Cc1ccsc1-c1nnc(-c2nc(-c3ccc(C(=O)N4CCCNCC4)cc3C#N)cnc2N)o1` [IA-181, 2-(5-amino-6-(5-(3-methylthiophen-2-yl)-1,3,4-oxadiazol-2-yl)pyrazin-2-yl)-5-(1,4-diazepane-1-carbonyl)benzonitrile], not above 10 nM; that for `Nc1ncc(-c2cccnc2)nc1-c1noc(-c2ccccc2)n1` [Compound I-145], 10 to 100 nM.
For “(R)-3-amino-N-phenyl-6-(4-(2-(pyrrolidin-1-ylmethyl)pyrrolidine-1-carbonyl)phenyl)pyrazine-2-carboxamide [Compound I-42]”, the Ki was 100 to 5000 nM.
For `Nc1ncc(-c2ccc(C(=O)N3CCNCC3)cc2)nc1-c1nnc(-c2ccccc2)o1` [IA-12] the value was 10 to 100 nM; for `CNCc1cccc(NC(=O)c2nc(-c3ccc(S(=O)(=O)C(C)C)cc3)cnc2N)c1` [VII-12], not above 10 nM; for `CC(C)S(=O)(=O)c1ccc(-c2cnc(N)c(-c3nnc(-c4ccc(CNCC(F)F)s4)o3)n2)cc1` [IA-236, 3-[5-[5-[(2,2-difluoroethylamino)methyl]-2-thienyl]-1,3,4-oxadiazol-2-yl]-5-(4-isopropylsulfonylphenyl)pyrazin-2-amine], 10 to 100 nM.
The result for `CN(C)C(=O)c1ccc(-c2cnc(N)c(-c3nnc(-c4cccs4)o3)n2)cc1` [IA-52] reads not above 10 nM; that for `COc1ccccc1-c1cnc(N)c(-c2nnc(-c3ccccc3)o2)n1` [IA-65], 100 to 5000 nM.
For `COc1ccc(-c2cnc(N)c(C(=O)Nc3ccccc3)n2)cc1` [Compound I-1, 3-amino-6-(4-methoxyphenyl)-N-phenylpyrazine-2-carboxamide] the value was 100 to 5000 nM; for `CN(C)c1cccc(NC(=O)c2nc(-c3cccnc3)cnc2N)c1` [Compound I-90, 3-amino-N-(3-(dimethylamino)phenyl)-6-(pyridin-3-yl)pyrazine-2-carboxamide], 100 to 5000 nM; for `Nc1ncc(-c2ccccc2-c2cnco2)nc1-c1nnc(-c2ccccc2)o1` [IA-207, 5-(2-oxazol-5-ylphenyl)-3-(5-phenyl-1,3,4-oxadiazol-2-yl)pyrazin-2-amine], 100 to 5000 nM.
`Cc1cc(NC(=O)c2nc(-c3ccc(S(C)(=O)=O)cc3)cnc2N)n(C)n1` [VII-3]: the Ki is 100 to 5000 nM.
Regarding `CN(C)C(=O)c1ccc(-c2cnc(N)c(-c3nnc(-c4ccccc4)o3)n2)c(C(F)F)c1` [IA-126, 4-[5-amino-6-(5-phenyl-1,3,4-oxadiazol-2-yl)pyrazin-2-yl]-3-(difluoromethyl)-N,N-dimethyl-benzamide], the inhibitory constant (Ki) was not above 10 nM.
Regarding `Nc1ncc(-c2cncnc2)nc1C(=O)Nc1ccccc1` [Compound I-40, 3-amino-N-phenyl-6-(pyrimidin-5-yl)pyrazine-2-carboxamide], the Ki lay in the range of 100 to 5000 nM.
The result for `CC(C)S(=O)(=O)c1ccc(-c2cnc(N)c(-c3nnc(-c4ccc5c(c4)CCNC5)o3)n2)cc1` [IA-145, 5-(4-isopropylsulfonylphenyl)-3-[5-(1,2,3,4-tetrahydroisoquinolin-6-yl)-1,3,4-oxadiazol-2-yl]pyrazin-2-amine] reads not above 10 nM; that for `Nc1ncc(-c2cccc(C(=O)N3CCNCC3)c2)nc1C(=O)Nc1ccccc1` [Compound I-53, 3-amino-N-phenyl-6-(3-(piperazine-1-carbonyl)phenyl) pyrazine-2-carboxamide], 100 to 5000 nM; that for `Nc1ncc(-c2cccnc2)nc1-c1nnc(-c2ccccc2)o1` [IA-64], 10 to 100 nM.
For `Nc1ncc(-c2ccncc2)nc1-c1nnc(-c2ccccc2)o1` [IA-60] the value was not above 10 nM.
The result for `CC(C)S(=O)(=O)c1ccc(-c2cnc(N)c(-c3nnc(-c4cccc(C5CNC5)c4)o3)n2)cc1` [IA-185, 3-[5-[3-(azetidin-3-yl)phenyl]-1,3,4-oxadiazol-2-yl]-5-(4-isopropylsulfonylphenyl)pyrazin-2-amine] reads 10 to 100 nM; that for `CC(C)S(=O)(=O)c1ccc(-c2cnc(N)c(-c3nnc(C(=O)O)o3)n2)cc1` [IA-128, 5-[3-amino-6-(4-isopropylsulfonylphenyl)pyrazin-2-yl]-1,3,4-oxadiazole-2-carboxylic acid], not above 10 nM; that for `COCc1ccccc1-c1cnc(N)c(-c2nnc(-c3ccccc3)o2)n1` [IA-125, 5-[2-(methoxymethyl)phenyl]-3-(5-phenyl-1,3,4-oxadiazol-2-yl)pyrazin-2-amine], 100 to 5000 nM.
On to `Cc1ccccc1NC(=O)c1nc(-c2cccnc2)cnc1N` [Compound I-91, 3-amino-6-(pyridin-3-yl)-N-o-tolylpyrazine-2-carboxamide], for which the inhibition constant Ki is 100 to 5000 nM.
For `CC(C)S(=O)(=O)c1ccc(-c2cnc(N)c(-c3nnc(NCCCN)o3)n2)cc1` [IA-97, N-[5-[3-amino-6-(4-isopropylsulfonylphenyl)pyrazin-2-yl]-1,3,4-oxadiazol-2-yl]propane-1,3-diamine] the value was 10 to 100 nM; for `Nc1ncc(-c2cccc3ccccc23)nc1-c1nnc(-c2ccccc2)o1` [IA-93, 5-(1-naphthyl)-3-(5-phenyl-1,3,4-oxadiazol-2-yl)pyrazin-2-amine], 100 to 5000 nM; for `CNCc1ccc(-c2nnc(-c3nc(-c4ccc(S(=O)(=O)C(C)CC(C)(C)O)cc4)cnc3N)o2)c(F)c1` (stereo not drawn) [IA-328, 4-[4-[5-amino-6-[5-[2-fluoro-4-(methylaminomethyl)phenyl]-1,3,4-oxadiazol-2-yl]pyrazin-2-yl]phenyl]sulfonyl-2-methyl-pentan-2-ol], not above 10 nM.
The result for `CN(C)C(=O)c1ccc(-c2cnc(N)c(-c3nnc(-c4cscn4)o3)n2)cc1` [IA-180, 4-[5-amino-6-(5-thiazol-4-yl-1,3,4-oxadiazol-2-yl)pyrazin-2-yl]-N,N-dimethyl-benzamide] reads 10 to 100 nM.
For `CN(C)CCOc1cc(-c2cnc(N)c(-c3nnc(-c4ccccc4)o3)n2)ccn1` [IA-165, 5-[2-(2-dimethylaminoethyloxy)-4-pyridyl]-3-(5-phenyl-1,3,4-oxadiazol-2-yl)pyrazin-2-amine] the value was 10 to 100 nM; for `CCC(C)S(=O)(=O)c1ccc(-c2cnc(N)c(-c3nnc(-c4ccc(CNC)cc4)o3)n2)cc1` (stereo not drawn) [IA-313, 3-[5-[4-(methylaminomethyl)phenyl]-1,3,4-oxadiazol-2-yl]-5-(4-sec-butylsulfonylphenyl)pyrazin-2-amine], not above 10 nM; for `Nc1ncc(-c2cccnc2)nc1C(=O)Nc1ccc2[nH]ccc2c1` [Compound I-104, 3-amino-N-(1H-indol-5-yl)-6-(pyridin-3-yl)pyrazine-2-carboxamide], 10 to 100 nM.
For the compound `Nc1ncc(-c2ccc(C(=O)NCCCO)cc2)nc1-c1nc2ccccc2[nH]1` [Compound I-128, 4-(5-amino-6-(1H-benzo[d]imidazol-2-yl)pyrazin-2-yl)-N-(3-hydroxypropyl)benzamide], the inhibition constant Ki lay in the range of 10 to 100 nM.
For the compound `Nc1ncc(-c2cccnc2)nc1C(=O)Nc1cccc(F)c1` [Compound I-103, 3-amino-N-(3-fluorophenyl)-6-(pyridin-3-yl)pyrazine-2-carboxamide], the Ki is 10 to 100 nM.
For `Nc1cccc(-c2nnc(-c3nc(-c4cccnc4)cnc3N)[nH]2)c1` [Compound I-140, 3-(5-(3-aminophenyl)-4H-1,2,4-triazol-3-yl)-5-(pyridin-3-yl)pyrazin-2-amine] the value was 10 to 100 nM.
In the case of `CN(C)C(=O)c1ccc(-c2cnc(N)c(-c3nnc(Nc4ccccc4C#N)s3)n2)cc1` [IVA-3, 4-[5-amino-6-[5-(2-cyanoanilino)-1,3,4-thiadiazol-2-yl]pyrazin-2-yl]-N,N-dimethyl-benzamide], the inhibition constant Ki fell in the range of 100 to 5000 nM.
For the compound `CC(C)S(=O)(=O)c1ccc(-c2cnc(N)c(-c3nnc(-c4ccc(CN)s4)o3)n2)cc1` [IA-173, 3-[5-[5-(aminomethyl)-2-thienyl]-1,3,4-oxadiazol-2-yl]-5-(4-isopropylsulfonylphenyl)pyrazin-2-amine], the Ki is not above 10 nM.
